Consider three molecules from patent US9272985B2, “Antibacterial hydroxyphenyl compound” (FAB PHARMA S.A.S., priority 2009, dated 2016).

For data set [1], the target named is T1, FabI from S. aureus (Staphylococcus aureus, UniProt Q6GI75).
T1 construct: made in house
T1 sequence (Q6GI75 1-256): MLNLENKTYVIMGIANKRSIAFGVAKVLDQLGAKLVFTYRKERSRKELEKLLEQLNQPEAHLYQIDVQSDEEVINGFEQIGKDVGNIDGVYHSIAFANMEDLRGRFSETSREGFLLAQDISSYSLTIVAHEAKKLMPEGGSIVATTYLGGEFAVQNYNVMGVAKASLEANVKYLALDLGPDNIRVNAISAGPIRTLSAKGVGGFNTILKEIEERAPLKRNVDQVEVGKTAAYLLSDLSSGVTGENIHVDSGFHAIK
Description: In vitro inhibition of recombinant S. aureus FabI enzyme (fluorescence based assay). In kind it is biochemical. The procedure:
(§1) Compound inhibitory activity of FabI enzyme is measured in vitro by the IC50 determination using a fluorescence based assay.
The protein FabI from S. aureus is prepared and purified using standard methods for recombinant protein expression after cloning of the gene in a prokaryotic expression vector.
(§2) The biochemical activity of the FabI enzyme is assessed using the following method.
The assay buffer “AB” contained 50 mM ADA (N-(2-acetamido)iminodiacetic acid monosodium salt) pH 6.5, 1 m M dithiothreitol, 0.006% Triton-X100 and 50 mM NaCl. The following components are added in a white polystyrene Costar plate (Ref 3912) up to a final volume of 55.5 μL: 1.5 μL DMSO or inhibitor dissolved in DMSO and 54 μL of a FabI/NADPH/NADP+ mixture in AB. […] Fluorescence intensity of NADPH (λex=360 nm, λem=520 nm) is measured immediately after t-O-NAC addition (T0), and approximately 50 min later (T50) by a Fluostar Optima (BMG) so as to achieve ±30% of NADPH conversion. Enzyme activity is calculated by first subtracting T0 signal to T50 and then subtracting background signal (FabI=0). Percentages of inhibition are calculated against untreated samples (Inhibitor=0) and IC50 are fitted to a classical Langmuir equilibrium model using XLFIT (IDBS).

Data set [2] deals with E. coli FabI enzyme (Escherichia coli, UniProt P0AEK4). Description: In vitro inhibition of recombinant E. coli FabI enzyme. In kind it is biochemical. The procedure:
as §1, §2
The assay buffer “AB” contained 50 mM ADA (N-(2-acetamido)iminodiacetic acid monosodium salt) pH 6.5, 1 m M dithiothreitol, 0.006% Triton-X100 and 50 mM NaCl. The following components are added in a white polystyrene Costar plate (Ref 3912) up to a final volume of 55.5 μL: 1.5 μL DMSO or inhibitor dissolved in DMSO and 54 μL of a FabI/NADPH/NADP+ mixture in AB. After 60 min of pre-incubation at room temperature, the reaction is started by addition of 5 μL of trans-2-octenoyl N-acetylcysteamine thioester (t-o-NAC) to a final volume of 60.5 μL. […] Fluorescence intensity of NADPH (λex=360 nm, λem=520 nm) is measured immediately after t-O-NAC addition (T0), and approximately 50 min later (T50) by a Fluostar Optima (BMG) so as to achieve ±30% of NADPH conversion. Enzyme activity is calculated by first subtracting T0 signal to T50 and then subtracting background signal (FabI=0). Percentages of inhibition are calculated against untreated samples (Inhibitor=0) and IC50 are fitted to a classical Langmuir equilibrium model using XLFIT (IDBS).

For data set [3], the system named is S. aureus CIP 54.146. Description: MIC determination using broth microdilution method. The data set is classed as cell-based. Particulars: Staphylococcus aureus, CIP54 / MSSA; MSSA CIP 54.146; range over a number of batches; read-out: MIC (μg/ml) (Broth microdilution) S. aureus CIP 54.146. The method, then:
The compound of the invention is a useful antibacterial agent having a selective spectrum of activity in vitro against bacterial strains relying on FabI and related targets. […] The activity is presented as Minimum Inhibitory Concentration (MIC) expressed in μg/ml and was determined using broth microdilution or Agar dilution methods.
Antibacterial activity was determined on MSSA CIP 54.146 provided by the Centre de Ressources Biologiques de l'Institut Pasteur
This protocol is compliant with Clinical Laboratory Standards Institute (CLSI) methodology as described in M7-A7 document of the CLSI. The compound to be tested is diluted according to a geometric series of reason 2 in pure DMSO. Dilutions are transferred in sterile polystyrene microplates, followed by mid-log phase bacteria in cation-adjusted Muller-Hinton broth (ca-MHB, Fluka, Reference 90922) with a final inoculum of 5×10^5 cfu/ml. Microplates are incubated overnight at 35° C. MIC is defined as the lowest concentration of antimicrobial agent that completely prevents visible bacterial growth. All manipulations, but compound handling (in pure DMSO), are performed under sterile conditions. The final concentration of DMSO in the plates is 2%.
(In general: Dilution methods test growth across graded concentrations, often in twofold steps.)

Data set [4] is described as follows: Aqueous solubility at pH 7.4 buffer. In kind it is physicochemical. The note with it: for solubility at 24 h: aqueous buffer, thermodynamic from solid, 20° C. The procedure: (§3) For each medium, the saturation of the medium is obtained by adding an excess of investigated compound to a given volume of test medium. The suspension is stirred at 20° C. for 24 h, the supernatant is then isolated and diluted to allow its injection into a chromatographic system. The concentration of the compound in solution for each medium is determined by external standardization.

A short description of data set [5]: Formulated solubility in 20% hydroxypropyl beta cyclodextrin aqueous solution with 5% dextrose. The data set is classed as physicochemical. The note with it: for solubility at 24 h: aqueous with cosolvent or surfactant or cyclodextrin, thermodynamic from solid, 20% hydroxypropyl beta cyclodextrin aqueous solution with 5% dextrose, 20° C. The procedure: as §3
Solubility was also investigated in a 20% hydroxypropyl beta cyclodextrin aqueous solution with 5% dextrose and the results are shown in Table 4.

Data set [6] addresses human norepinephrine transporter (Homo sapiens, UniProt P23975). The data set is described as follows: In vitro binding/enzyme panel: human norepinephrine transporter.
Data set [7] in a line: Panel of 112 in vitro binding assays and 42 in vitro enzyme assays. The note with it: except human norepinephrine transporter.
Data set [8] deals with hERG (Homo sapiens, UniProt Q12809). Description: hERG tail current amplitude in vitro. Particulars: after rundown subtraction. The data set is classed as cell-based. On the technique in general: The hERG channel carries a current that helps repolarise heart muscle cells.
Data set [9] can be described thus: QT interval in conscious dogs after single intravenous infusion. The data set is classed as in vivo.
A short description of data set [10]: Functional observation battery and evaluation of respiration function in rats. In kind it is in vivo. Particulars: compared to vehicle only.
Data set [11] is described as follows: In vivo studies in rats and dogs (adverse effects).
The test system of data set [12] is Streptococcus and Enterococcus. The data set is described as follows: Activity against other Gram-positive pathogens not dependent upon FabI. The data set is classed as cell-based.
Data set [13] has as its system target bacterial populations. The data set is described as follows: Resistance and killing profile in target bacterial populations. The data set is classed as cell-based.
Data set [14] concerns MSSA, MRSA, VISA and VRSA strains. The data set is described as follows: In vitro activity against pathogenic S. aureus strains. In kind it is cell-based, Staphylococcus aureus. The note with it: several pathogenic strains. The source says:
(§4) Such increased solubility provides the significant advantage of allowing the compound of the invention to be administered intravenously.

In data set [15] the test system is MSSA, MRSA and VISA infections. Description: Murine infection model. The data set is classed as in vivo.
Source text: as §4

For data set [16] the following is noted: rats, intravenous; cited from earlier work.

Converted amounts (≈) assume the structure as drawn. Like-named read-outs stand apart in the source and are kept apart here.

E. coli FabI enzyme, sequence (P0AEK4 whole entry): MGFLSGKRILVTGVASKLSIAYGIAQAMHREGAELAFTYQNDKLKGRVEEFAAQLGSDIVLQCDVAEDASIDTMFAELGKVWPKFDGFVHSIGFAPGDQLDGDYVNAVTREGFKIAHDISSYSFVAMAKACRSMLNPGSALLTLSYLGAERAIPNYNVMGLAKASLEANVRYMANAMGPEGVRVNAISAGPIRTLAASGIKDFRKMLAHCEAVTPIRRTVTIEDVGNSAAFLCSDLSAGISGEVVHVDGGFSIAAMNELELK
hERG, sequence (Q12809 whole entry, the tested form may be a part): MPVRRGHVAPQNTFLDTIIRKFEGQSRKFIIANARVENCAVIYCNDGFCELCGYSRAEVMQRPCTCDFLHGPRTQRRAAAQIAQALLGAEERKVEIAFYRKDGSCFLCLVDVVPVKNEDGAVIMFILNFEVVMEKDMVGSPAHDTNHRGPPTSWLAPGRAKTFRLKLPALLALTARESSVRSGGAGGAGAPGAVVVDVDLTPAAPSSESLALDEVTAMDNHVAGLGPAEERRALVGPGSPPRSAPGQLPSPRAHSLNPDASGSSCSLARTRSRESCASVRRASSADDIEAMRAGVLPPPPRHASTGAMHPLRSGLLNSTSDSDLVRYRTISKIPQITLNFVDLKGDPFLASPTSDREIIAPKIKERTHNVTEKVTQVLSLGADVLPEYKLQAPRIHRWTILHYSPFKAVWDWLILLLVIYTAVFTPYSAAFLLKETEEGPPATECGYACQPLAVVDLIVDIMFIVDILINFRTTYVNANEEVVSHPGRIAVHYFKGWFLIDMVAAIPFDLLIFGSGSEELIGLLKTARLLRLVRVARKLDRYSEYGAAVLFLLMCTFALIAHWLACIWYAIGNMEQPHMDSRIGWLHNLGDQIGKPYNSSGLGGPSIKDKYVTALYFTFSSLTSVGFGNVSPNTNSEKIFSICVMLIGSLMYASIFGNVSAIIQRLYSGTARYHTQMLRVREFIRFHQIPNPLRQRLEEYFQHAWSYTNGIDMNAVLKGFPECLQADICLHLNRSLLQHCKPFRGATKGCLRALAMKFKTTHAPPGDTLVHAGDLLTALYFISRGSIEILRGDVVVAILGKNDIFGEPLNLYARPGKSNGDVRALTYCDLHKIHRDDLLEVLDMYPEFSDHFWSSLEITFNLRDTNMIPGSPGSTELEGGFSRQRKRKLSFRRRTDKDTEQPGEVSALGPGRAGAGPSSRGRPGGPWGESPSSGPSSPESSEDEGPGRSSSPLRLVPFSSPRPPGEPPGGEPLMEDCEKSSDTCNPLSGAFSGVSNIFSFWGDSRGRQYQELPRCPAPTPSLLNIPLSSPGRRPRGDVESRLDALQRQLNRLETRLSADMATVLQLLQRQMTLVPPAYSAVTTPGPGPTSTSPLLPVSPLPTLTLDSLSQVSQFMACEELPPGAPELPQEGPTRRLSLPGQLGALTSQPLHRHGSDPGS
human norepinephrine transporter, sequence (P23975 whole entry): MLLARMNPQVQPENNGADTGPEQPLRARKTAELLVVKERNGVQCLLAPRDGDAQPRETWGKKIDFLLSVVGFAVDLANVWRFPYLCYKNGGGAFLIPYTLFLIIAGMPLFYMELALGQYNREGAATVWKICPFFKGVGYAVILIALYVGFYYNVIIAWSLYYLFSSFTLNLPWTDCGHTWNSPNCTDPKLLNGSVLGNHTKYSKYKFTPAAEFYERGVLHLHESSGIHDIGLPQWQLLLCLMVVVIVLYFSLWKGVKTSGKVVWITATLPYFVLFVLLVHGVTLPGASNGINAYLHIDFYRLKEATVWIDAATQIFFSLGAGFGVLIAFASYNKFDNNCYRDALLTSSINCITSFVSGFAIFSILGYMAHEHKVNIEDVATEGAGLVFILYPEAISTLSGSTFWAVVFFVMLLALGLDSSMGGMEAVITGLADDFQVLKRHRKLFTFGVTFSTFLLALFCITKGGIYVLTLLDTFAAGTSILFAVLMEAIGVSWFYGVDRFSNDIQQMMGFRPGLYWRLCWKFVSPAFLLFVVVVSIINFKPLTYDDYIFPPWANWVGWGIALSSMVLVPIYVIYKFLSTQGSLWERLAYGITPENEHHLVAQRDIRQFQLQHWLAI

In general, IC50 refers to the concentration that inhibits the measured activity by half. The term solubility denotes how much of the substance goes into solution per volume. A high value points to much dissolved substance. For `CCc1cc(O)c(Oc2cccnc2F)cc1F` [Comparative Example 2, 5-Ethyl-4-fluoro-2-(2-fluoropyridin-3yloxy)phenol, reference compound], the IC50 in [1] (recombinant S. aureus FabI, range over a number of batches, read-out: FabI Inhibition IC50 (μM) S. aureus) lay within 0.008 to 0.017 µM; in data set [2] (recombinant E. coli FabI, range over a number of batches, read-out: FabI Inhibition IC50 (μM) E. coli), 0.019 to 0.065 µM. For the same molecule, in data set [3], the MIC was 0.063 µg/mL (≈ 0.251 µM). Moreover, the solubility at 24 h in data set [4] was found to be 8 µg/mL (≈ 31.8 µM); in data set [5] it was 2400 µg/mL (≈ 9550 µM).

The term inhibition denotes the change of the read-out against control, counted positive when it falls. Take `CCc1cc(O)c(Oc2ccc(C(N)=O)cc2F)cc1F` [Example 1, 4-(4-Ethyl-5-fluoro-2-hydroxyphenoxy)-3-fluorobenzamide]: the IC50 is 0.012 to 0.014 µM in [1] and 0.058 to 0.068 µM in [2]. In addition, in [3], the MIC was in the range of 0.063 to 0.125 µg/mL (≈ 0.215 to 0.426 µM). For the same molecule, the “Fold more soluble than comparative example 2” value in data set [4] is “two fold”; in data set [5] (20% hydroxypropyl beta cyclodextrin with 5% dextrose) it was roughly 5 fold. In addition, the solubility at 24 h in [4] turned out to be 16 µg/mL (≈ 54.6 µM); in [5], 11300 µg/mL (≈ 38500 µM). In addition, the “Inhibition of human norepinephrine transporter” value in [6] was 88%. Besides, in data set [7], the “Affinity or activity in 112 in vitro binding assays and 42 in vitro enzyme assays” value is “devoid of any significant affinity or activity”. In [8], this molecule had an inhibition at 30 µM of 35.3%. Further, in data set [9] (after the end of infusion), the “Corrected QT after the end of infusion versus control group” value was “generally lower than in the control group”. The QT interval prolongation entry in [9] (single intravenous infusion at 25, 50 and 100 mg/kg) was “no QT interval prolongation was observed”. In addition, in data set [10], the “Tolerability in functional observation battery and respiration function assays” value is listed as “well tolerated”. Further, the “Adverse effects during in vivo studies” value in data set [11] was “no major adverse effects were reported”. Moreover, the “Activity against Streptococcus and Enterococcus” value in [12] is “no activity”. Also, in data set [13] (target bacterial populations), the “Type of antibacterial effect” value is on record as “bacteriostatic or slow bactericidal effect”. In addition, the “Spontaneous mutation rate towards drug resistance” value in data set [13] (target bacterial populations exposed to the compound) was “approximately 10^−9”. In data set [13] (target microbial populations), the “Cross resistance with glycopeptides (Vancomycin) and oxazolidinones (Linezolid)” value is recorded as “no cross resistance”. Besides, the “In vitro activity against MSSA, MRSA, VISA and VRSA strains” value in data set [14] was “highly active”. Further, the “In vivo activity in a murine model” value in data set [15] is given as “active in vivo”.

In general, LD50 refers to the dose expected to kill half of the subjects tested. Regarding `Oc1cc(Cl)ccc1Oc1ccc(Cl)cc1Cl` [Triclosan], in data set [16], the LD50 was 29 mg/kg.
